The record followed here is US12521440B2, “Degradation of bruton's tyrosine kinase (BTK) by conjugation of BTK inhibitors with E3 ligase ligand and methods of use” (BeOne Medicines I GmbH, priority 2021, dated 2026).

The structures appear in SMILES notation. Where only a bound is given, the exact number is not on record here.

In one assay the target is T1, BTK (Homo sapiens, UniProt Q06187).
T1 construct: endogenous in cells; host or cells: TMD-8 cells
The experiment in a line: BTK degradation in TMD-8 cells (HTRF assay). Particulars: 6 h treatment, HTRF BTK degradation IC50 (DC50). Format: cell-based. How it is done: TMD-8 cells were treated with compounds diluted in 0.2% DMSO, dilution was done according to the following protocol: (1) making 500×stock solution in DMSO from 1 mM by 6-fold dilution, total 8 doses were included; (2) making 2×solution in cell culture medium by transferring 0.5 μl 500×stock solution into 125 μl medium; (3) adding 15 μl of 2×solution to cells for incubation of 6 h.
After 6 h treatment, 10 μl 4×lysis buffer was added to each well; the plate was sealed and incubated for 30 min at room temperature on a plate shaker; Once the cells was lysed, 16 μL of cell lysate were transferred to a PE 384-well HTRF detection plate; 4 μL of pre-mixed HTRF antibodies were added to each well; the plate was covered with a plate sealer, and then spinned at 1000 rpm for 1 min, then incubated overnight at room temperature; the results were read on BMG PheraStar with HTRF protocol (337 nm-665 nm-620 nm).
(§1) The IC50 (DC50) value of a compound can be obtained by fitting the following equation Y=Bottom+(TOP−Bottom)/(1+((IC50/X)^hillslope)) wherein, X and Y are known values, and IC50, Hillslope, Top and Bottom are the parameters obtained by fitting with software. Y is the inhibition percentage (calculated from the equation), X is the concentration of the compound; IC50 is the concentration of the compound when the 50% inhibition is reached. The smaller the IC50 value is, the stronger the inhibitory ability of the compound is. Vice versa, the higher the IC50 value is, the weaker the ability the inhibitory ability of the compound is; Hillslope represents the slope of the fitted curve, generally around 1*; Bottom represents the minimum value of the curve obtained by data fitting, which is generally 0%±20%; Top represents the maximum value of the curve obtained by data fitting, which is generally 100%±20%. The experimental data were fitted by calculating and analyzing with Dotmatics data analysis software. HEK-293 Cell Treatment

In the next assay the test system is HEK-293 cells. The experiment in a line: HEK-293 cytotoxicity detection (CellTiter-Glo). Format: cell-based. Particulars: Homo sapiens, 72 h incubation, read-out: HEK293.
Description: as §1
HEK-293 cells were treated with compounds diluted in 0.2% DMSO, dilution was done according to the following protocol: (1) making 500×stock solution in DMSO from 5 mM by 4-fold dilution, total 8 doses were included; (2) making 2×solution in cell culture medium by transferring 0.5 ul 500×stock solution into 125 ul medium; (3) adding 50 ul of 2×solution to cells for incubation of 72 h.
25 μl of the CellTiter-Glo® Reagent [(Promega)—Cat No. G7572] was added to each well in the 96-well plate. The contents were mixed for 2 minutes on an orbital shaker to induce cell lysis. The plate was then allowed to incubate at room temperature for 10 minutes to stabilize luminescent signal. Luminescence was recorded on BMG PheraStar with luminescence protocol.
as §1, with “IC50” for “IC50 (DC50)”, “Wherein,” for “wherein,”, “software.” for “software. HEK-293 Cell Treatment”

T1 sequence (Q06187 whole entry): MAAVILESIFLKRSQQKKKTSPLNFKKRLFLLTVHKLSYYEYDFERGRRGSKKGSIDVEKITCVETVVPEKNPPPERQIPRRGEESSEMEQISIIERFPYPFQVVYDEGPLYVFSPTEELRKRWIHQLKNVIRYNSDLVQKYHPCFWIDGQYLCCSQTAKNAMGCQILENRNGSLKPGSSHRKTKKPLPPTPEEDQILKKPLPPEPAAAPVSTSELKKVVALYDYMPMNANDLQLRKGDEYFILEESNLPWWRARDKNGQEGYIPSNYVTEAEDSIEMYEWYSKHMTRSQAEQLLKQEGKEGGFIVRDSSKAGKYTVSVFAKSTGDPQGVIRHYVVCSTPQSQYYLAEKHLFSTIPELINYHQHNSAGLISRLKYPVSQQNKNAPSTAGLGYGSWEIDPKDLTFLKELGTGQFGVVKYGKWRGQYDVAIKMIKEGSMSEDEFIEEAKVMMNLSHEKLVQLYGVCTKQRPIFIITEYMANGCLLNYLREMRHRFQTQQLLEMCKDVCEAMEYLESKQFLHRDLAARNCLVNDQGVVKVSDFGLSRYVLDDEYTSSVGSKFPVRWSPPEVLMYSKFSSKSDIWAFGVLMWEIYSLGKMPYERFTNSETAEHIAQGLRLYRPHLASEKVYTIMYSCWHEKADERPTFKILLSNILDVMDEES

Consider `Cc1cc(-c2cc(Nc3ccc(N4CCN(CC5CCN(c6ccc(N7CCC(=O)NC7=O)cc6)CC5)CC4)nc3)ncn2)ccc1[C@@H](C)NC(=O)c1nc(C(C)(C)C)no1` [Example 13, (R)-3-(tert-butyl)-N-(1-(4-(6-((6-(4-((1-(4-(2,4-dioxotetrahydropyrimidin-1(2H)-yl)phenyl)piperidin-4-yl)methyl)piperazin-1-yl)pyridin-3-yl)amino)pyrimidin-4-yl)-2-methylphenyl)ethyl)-1,2,4-oxadiazole-5-carboxamide], for which, on BTK, the DC50 came to 32.7 nM. Further, the IC50 with HEK-293 cells was more than 10000 nM.
Taken in the same sequence, the figures for `Cc1cc(-c2cc(Nc3ncc(N4CCN(CC5CCN(c6ccc(N7CCC(=O)NC7=O)cc6)CC5)CC4)cn3)ncn2)ccc1[C@@H](C)NC(=O)c1nc(C(C)(C)C)no1` [Example 14, (R)-3-(tert-butyl)-N-(1-(4-(6-((5-(4-((1-(4-(2,4-dioxotetrahydropyrimidin-1(2H)-yl)phenyl)piperidin-4-yl)methyl)piperazin-1-yl)pyrimidin-2-yl)amino)pyrimidin-4-yl)-2-methylphenyl)ethyl)-1,2,4-oxadiazole-5-carboxamide] were 3.21 nM and more than 10000 nM.
For `Cc1cc(-c2cc(Nc3ccc(N4CCN(CC5CCN(c6ccc(N7CCC(=O)NC7=O)cc6)CC5)CC4)nn3)ncn2)ccc1[C@@H](C)NC(=O)c1nc(C(C)(C)C)no1` [Example 15], in that order: 0.638 nM and more than 10000 nM.
For `Cc1cc(-c2cc(Nc3ccc(N4CCN(CC5CCN(c6ccc(N7CCC(=O)NC7=O)cc6)CC5)CC4)cn3)ncn2)ccc1[C@@H](C)NC(=O)c1nc(C(C)(C)C)no1` [Example 16, (R)-3-(tert-butyl)-N-(1-(4-(6-((5-(4-((1-(4-(2,4-dioxotetrahydropyrimidin-1(2H)-yl)phenyl)piperidin-4-yl)methyl)piperazin-1-yl)pyridin-2-yl)amino)pyrimidin-4-yl)-2-methylphenyl)ethyl)-1,2,4oxadiazole-5-carboxamide], in that order: 1.29 nM and more than 10000 nM.
`Cc1cc(-c2cc(Nc3ccc(N4CCN(CC5CCN(c6ccc(N7CCC(=O)NC7=O)c(F)c6)CC5)CC4)cn3)ncn2)ccc1[C@@H](C)NC(=O)c1nc(C(C)(C)C)no1` [Example 17, (R)-3-(tert-butyl)-N-(1-(4-(6-((5-(4-((1-(4-(2,4-dioxotetrahydropyrimidin-1(2H)-yl)-3-fluorophenyl)piperidin-4-yl)methyl)piperazin-1-yl)pyridin-2-yl)amino)pyrimidin-4-yl)-2-methylphenyl)ethyl)-1,2,4-oxadiazole-5-carboxamide] yielded a DC50 at BTK of 2.2 nM. In the assay on HEK-293 cells, the IC50 is more than 10000 nM.
Taken in the same sequence, the figures for `Cc1cc(-c2cc(Nc3ccc(N4CCN(CC5CCN(c6ccc(N7CCC(=O)NC7=O)c(C)c6)CC5)CC4)cn3)ncn2)ccc1[C@@H](C)NC(=O)c1nc(C(C)(C)C)no1` [Example 18, (R)-3-(tert-butyl)-N-(1-(4-(6-((5-(4-((1-(4-(2,4-dioxotetrahydropyrimidin-1(2H)-yl)-3-methylphenyl)piperidin-4-yl)methyl)piperazin-1-yl)pyridin-2-yl)amino)pyrimidin-4-yl)-2-methylphenyl)ethyl)-1,2,4-oxadiazole-5-carboxamide] were 1.15 nM and more than 10000 nM.
Taken in the same sequence, the figures for `Cc1cc(-c2cc(Nc3ccc(N4CCN(CC5CN(c6ccc(C7CCC(=O)NC7=O)cc6)C5)CC4)cn3)ncn2)ccc1[C@@H](C)NC(=O)c1nc(C(C)(C)C)no1` (stereo partly drawn) [Example 19, 3-(tert-butyl)-N-((1R)-1-(4-(6-((5-(4-((1-(4-(2,6-dioxopiperidin-3-yl)phenyl)azetidin-3-yl)methyl)piperazin-1-yl)pyridin-2-yl)amino)pyrimidin-4-yl)-2-methylphenyl)ethyl)-1,2,4-oxadiazole-5-carboxamide] were 2.51 nM and more than 10000 nM.
Taken in the same sequence, the figures for `Cc1cc(-c2cc(Nc3ccc(N4CC(CN5CCN(c6ccc(N7CCC(=O)NC7=O)cc6)CC5)C4)cn3)ncn2)ccc1[C@@H](C)NC(=O)c1nc(C(C)(C)C)no1` [Example 20, (R)-3-(tert-butyl)-N-(1-(4-(6-((5-(3-((4-(4-(2,4-dioxotetrahydropyrimidin-1(2H)-yl)phenyl)piperazin-1-yl)methyl)azetidin-1-yl)pyridin-2-yl)amino)pyrimidin-4-yl)-2-methylphenyl)ethyl)-1,2,4-oxadiazole-5-carboxamide] were 1.23 nM and more than 10000 nM.
On BTK, `Cc1cc(-c2cc(Nc3ccc(N4CCC(CN5CCN(c6ccc(N7CCC(=O)NC7=O)cc6)CC5)CC4)cn3)ncn2)ccc1[C@@H](C)NC(=O)c1nc(C(C)(C)C)no1` [Example 21, (R)-3-(tert-butyl)-N-(1-(4-(6-((5-(4-((4-(4-(2,4-dioxotetrahydropyrimidin-1(2H)-yl)phenyl)piperazin-1-yl)methyl)piperidin-1-yl)pyridin-2-yl)amino)pyrimidin-4-yl)-2-methylphenyl)ethyl)-1,2,4-oxadiazole-5-carboxamide] had a DC50 of 2.11 nM. In addition, the IC50 in the assay on HEK-293 cells is more than 10000 nM.
Taken in the same sequence, the figures for `Cc1cc(-c2cc(Nc3ccc(N4CCN(CC5CN(c6ccc(N7CCC(=O)NC7=O)cc6)C5)CC4)cn3)ncn2)ccc1[C@@H](C)NC(=O)c1nc(C(C)(C)C)no1` [Example 22, (R)-3-(tert-butyl)-N-(1-(4-(6-((5-(4-((1-(4-(2,4-dioxotetrahydropyrimidin-1(2H)-yl)phenyl)azetidin-3-yl)methyl)piperazin-1-yl)pyridin-2-yl)amino)pyrimidin-4-yl)-2-methylphenyl)ethyl)-1,2,4-oxadiazole-5-carboxamide] were 1.58 nM and more than 10000 nM.
`Cc1cc(-c2cc(Nc3ccc(C4CN(CC5CCN(c6ccc(N7CCC(=O)NC7=O)cc6)CC5)C4)cn3)ncn2)ccc1[C@@H](C)NC(=O)c1nc(C(C)(C)C)no1` [Example 23, (R)-3-(tert-butyl)-N-(1-(4-(6-((5-(1-((1-(4-(2,4-dioxotetrahydropyrimidin-1(2H)-yl)phenyl)piperidin-4-yl)methyl)azetidin-3-yl)pyridin-2-yl)amino)pyrimidin-4-yl)-2-methylphenyl)ethyl)-1,2,4-oxadiazole-5-carboxamide] displayed a DC50 on BTK of 1.14 nM. For the same molecule, the IC50 in the assay with HEK-293 cells was 2900 nM.
For `Cc1cc(-c2cc(Nc3ccc(N4CCN(C[C@@H]5CCN(c6ccc(N7CCC(=O)NC7=O)cc6)C5)CC4)cn3)ncn2)ccc1[C@@H](C)NC(=O)c1nc(C(C)(C)C)no1` [Example 24, 3-(tert-butyl)-N—((R)-1-(4-(6-((5-(4-(((S)-1-(4-(2,4-dioxotetrahydropyrimidin-1(2H)-yl)phenyl)pyrrolidin-3-yl)methyl)piperazin-1-yl)pyridin-2-yl)amino)pyrimidin-4-yl)-2-methylphenyl)ethyl)-1,2,4-oxadiazole-5-carboxamide], in that order: 5.63 nM and more than 10000 nM.
For `Cc1cc(-c2cc(Nc3ccc(N4CCN(C(=O)C5CN(c6ccc(N7CCC(=O)NC7=O)cc6)C5)CC4)cn3)ncn2)ccc1[C@@H](C)NC(=O)c1nc(C(C)(C)C)no1` [Example 25, (R)-3-(tert-butyl)-N-(1-(4-(6-((5-(4-(1-(4-(2,4-dioxotetrahydropyrimidin-1(2H)-yl)phenyl)azetidine-3-carbonyl)piperazin-1-yl)pyridin-2-yl)amino)pyrimidin-4-yl)-2-methylphenyl)ethyl)-1,2,4-oxadiazole-5-carboxamide], in that order: 0.935 nM and more than 10000 nM.
